Laboratory results reported in patent US5525595A, “3- or 4-glycosyloxybenzopyran derivative and antiallergic agent containing the derivative as active ingredient” (priority 1993, dated 1996).

Tests used:
[1] = tested on: contact dermatitis induced by picryl chloride; test: Effect on contact dermatitis induced by picryl chloride in mice (delayed type hypersensitization); format: in vivo
Experimental: The delayed type hypersensitization is inhibited by steroid, but can not be effected by known anti-allergic agents. In the following, the method of the pharmacological test will be explained.
Method: Mice, shaved their abdominal skin on previous day, were immunized by applying 0.1 ml of acetone containing 7 mg of picryl chloride to the skin of the abdomen. 7 days after immunization, the thickness of the ear was measured with a dial thickness gauge, then mice were challenged by painting 5 μl of 1% picryl chloride olive oil solution to each side skin of left ear. 24 hours after challenge, the thickness of the left ear was measured again and the increase (%) of thickness was calculated according to equation 2. The compounds of the present invention (test compounds) suspended in 0.5% CMCNa were forcibly administered orally at a dose of 100 mg/kg at 1 hour before and 16 hours after challenge. As vehicle control group, only 0.5% CMCNa solution were administered orally, and as positive control group, Prednisolone, steroid hormone, and Tranilast were administered orally at the doses of 10 mg/kg and 100 mg/kg, respectively.
Increase (%)=(A-B)/B×100 (Equation 2)
A: thickness of the ear at 24 hours after challenge
B: thickness of the ear before challenge
Inhibition(%)=(C-D)/C×100 (equation 3)
C: The increase (%) in vehicle control group
D: The increase (%) in test compounds group or positive control group

[2] = tested on: homologous passive cutaneous anaphylaxis (PCA) reaction; test: Effect on homologous passive cutaneous anaphylaxis (PCA) reaction in rats; format: in vivo, rats (Male wistar rats); details: for inhibition in vivo at 100 mg/kg: Rattus norvegicus, 0.5 h; for Inhibition (%) of PCA reaction, compared compounds: Comparative Test Example 1, Table 5, compared compounds of EP-A-0598117
Experimental: This experimental animal model is caused by immediate type allergic reaction, namely, antigen-antibody reaction. In the following, the method of this pharmacological test will be explained.
Method: Male wistar rats (9 weeks old) were intradermally administered 0.05 ml of anti-serum against trinitrophenylated ascaris (TNP-As) into two sites on the shaved dorsal skin. 48 hours later, 3-glycosyloxybenzopyran derivatives and 4-glycosyloxybenzopyran derivatives (test compounds) suspended in 0.5% sodium carboxymethylcellulose (CMCNa) were given orally at a dose of 100 mg/kg to the animals. 1 hour after administration of Test compounds, the animals were induced anaphylaxis by injection of saline (1 ml) dissolving 5 mg of Evans Blue and 1 mg of TNP-As into the tail vein of the animals. 30 minutes after induction of anaphylaxis, animals were anesthetized by ether and killed by bleeding, and were flayed dorsal skin. The leakage of dye was assessed by measuring the diameter (mean of shortest and longest diameter) of the blue spot on the inside surface of dorsal skin. As vehicle control group, only 0.5% CMCNa solution was administered orally, and as positive control group, Tranilast suspended in 0.5% CMCNa were administered orally at a dose of 100 mg/kg to the animals with the same method as the test compounds groups. Each experimental group consisted of 5 rats. [formula] In equation 1: A: leakage of dye in vehicle control group
B: leakage of dye in test compound group or in positive control group
The anti-allergic activity of the compounds of the present invention were compared with that of analogous compounds which were published in the Patent (EP-A-0598117) by PCA reaction. This pharmacological test was performed according to the method described in Test Example 1.

[3] = tested on: airway resistance in experimental asthma model; test: Effect on experimental asthma model in guinea pigs; format: in vivo, guinea pigs (Male hadley); details: 100 mg/kg oral, OVA challenge, guinea pigs, Table 7; for inhibition in vivo at 100 mg/kg: Cavia porcellus
Experimental: The asthma is typical allergic disease and we carried out this pharmacological test by well known experimental asthma model in guinea pigs in order to confirm that the compounds of the present invention suppress the asthma. In the following, the method of the pharmacological test will be explained.
Method: Male hadley guinea pigs were immunized by intraperitoneal injection of saline (1 ml) containing 5 mg of ovalbumine (OVA) three times at interval of one week. 2 weeks after final immunization, the animals were challenged by inhalation of 1% OVA-saline solution for 1 minute and then the airway resistance of the animals were measured for 30 minutes with PULMOS-1 (Medical Interface Project Station Inc.) after the inhalation. The compounds of the present invention (test compounds) suspended in 0.5% CMCNa were given orally at a dose of 100 mg/kg. As positive control group, Disodium Cromoglicate (DSCG), well known anti-allergic agent, in saline were injected at a dose of 20 mg/kg into the vein of the animals. As vehicle control group, only 0.5% CMCNa solution were given orally. The inhibition (%) of the airway resistance in vehicle control group was calculated according to equation 5 and the result was shown in Table 7. Each experimental group consisted of 5 guinea pigs. [formula] In equation 5: A: Maximum airway resistance in vehicle control group
B: Maximum airway resistance in test compounds group or positive control group

[4] = Mus musculus, 100 mg/kg oral, ear thickness 24 hours after challenge, Table 6, read-out: Inhibition (%) against the increase of ear thickness
[5] = 100 mg/kg oral, 1 hour before antigen, rats, Table 3

Row | Compound | inhibition in vivo at 100 mg/kg [1, 4] | inhibition in vivo at 100 mg/kg [2, 5] | inhibition in vivo at 100 mg/kg [3] | also measured
1 | CCCCCCOc1ccc2c(O)c(O[C@@H]3O[C@H](CO)[C@H](O)[C@H](O)[C@H]3O)c(=O)oc2c1 [compound 41] | 65.7% | 60.8% | 77.7% | –
2 | CC(C)Oc1ccc2c(O)c(O[C@H]3O[C@H](CO)[C@@H](O)[C@H](O)[C@@H]3O)c(=O)oc2c1 [compound 27] | 51.2% | 47.8% | 56.7% | –
3 | CCCCOc1ccc2c(O[C@H]3O[C@H](CO)[C@@H](O)[C@H](O)[C@@H]3O)c(O)c(=O)oc2c1 [compound 79] | 46.3% | 47.1% | 50.3% | –
4 | CCCCCCCCCCCCOc1ccc2c(O)c(O[C@H]3O[C@H](CO)[C@@H](O)[C@H](O)[C@@H]3O)c(=O)oc2c1 [compound 26] | 55.9% | 53.3% | 66.3% | –
5 | CC(C)=CCC/C(C)=C/COc1ccc2c(O)c(O[C@@H]3O[C@H](CO)[C@@H](O)[C@H](O)[C@H]3O)c(=O)oc2c1 [compound 20] | 56.2% | 57.2% | 72.4% | –
6 | COc1ccc2c(OCc3ccccc3)c(O[C@@H]3O[C@H](COC(C)=O)[C@@H](OC(C)=O)[C@H](OC(C)=O)[C@@H]3OC(C)=O)c(=O)oc2c1 [compound 6, 7-methoxy-4-benzyloxy-3-(tetra-O-acetyl-β-D-mannopyranosyloxy)-2H-1-benzopyran-2-one] | – | – | – | Inhibition (%) against the increase of ear thickness ([1]; 100 mg/kg oral, ear thickness 24 hours after challenge, Table 6): 41.9%; Inhibition (%) of PCA reaction [2, 5]: 42.3%; Inhibition (%) of the airway resistance [3]: 38.5%
7 | COc1ccc2c(O)c(O[C@@H]3O[C@H](CO)[C@H](O)[C@H](O)[C@H]3O)c(=O)oc2c1 [compound 11, 7-methoxy-4-hydroxy-3-(β-D-galactopyranosyloxy)-2H-1-benzopyran-2-one] | 53.3% | 52.1% | 63.3% | –
8 | CCCCCCCCCCCCOc1ccc2c(O[C@H]3O[C@H](CO)[C@@H](O)[C@H](O)[C@@H]3O)c(OC(C)=O)c(=O)oc2c1 [compound 89] | 41.2% | 43.7% | 43.2% | –
9 | CCCCOc1ccc2c(O[C@@H]3O[C@H](CO)[C@H](O)[C@H](O)[C@H]3O)c(OC(C)=O)c(=O)oc2c1 [compound 102] | 46.3% | 46.3% | 50.3% | –
10 | CCCCOc1ccc2c(O)c(O[C@H]3O[C@H](CO)[C@@H](O)[C@H](O)[C@@H]3O)c(=O)oc2c1 [compound 24] | 52.6% | 54.3% | 58.3% | –
11 | CCCCCCCCOc1ccc2c(O)c(OC)c(=O)oc2c1 [Compared compound 2, 3-methoxy-4-hydroxy-7-octyloxy-2H-1-benzopyran-2-one, reference compound] | – | – | – | Inhibition (%) of PCA reaction, compared compounds [2]: 32.8%
12 | COc1ccc2c(OC)c(O)c(=O)oc2c1 [Compared compound 3, 3-hydroxy-4,7-dimethoxy-2H-1-benzopyran-2-one, reference compound] | – | – | – | Inhibition (%) of PCA reaction, compared compounds [2]: 30.6%
13 | C[C@]12C=CC(=O)C=C1CC[C@@H]1[C@@H]2[C@@H](O)C[C@@]2(C)[C@H]1CC[C@]2(O)C(=O)CO [Prednisolone, reference compound] | – | – | – | inhibition in vivo at 10 mg/kg ([1]; Mus musculus, po, 24 h, read-out: Inhibition (%) against the increase of ear thickness): 63.5%
14 | CCCCCCCCCCOc1ccc2c(OC)c(O)c(=O)oc2c1 [Compared compound 4, 3-hydroxy-4-methoxy-7-decyloxy-2H-1-benzopyran-2-one, reference compound] | – | – | – | Inhibition (%) of PCA reaction, compared compounds [2]: 26.4%
15 | COc1ccc2c(O)c(OC)c(=O)oc2c1 [Compared compound 1, 4-hydroxy-3,7-dimethoxy-2H-1-benzopyran-2-one, reference compound] | – | – | – | Inhibition (%) of PCA reaction, compared compounds [2]: 28.9%
16 | COc1ccc(/C=C/C(=O)Nc2ccccc2C(=O)O)cc1OC [Tranilast, reference compound] | 11.5% | 56.2% | – | inhibition of delayed type hypersensitization ([1]; 100 mg/kg oral, in words): did not inhibit delayed type hypersensitization
